Measurements from ChEMBL document CHEMBL4715844, “Structure-based virtual screening and biological evaluation of novel non-bisphosphonate farnesyl pyrophosphate synthase inhibitors” (Eur J Med Chem, 2020).

Key:
[1] = target: T1, Farnesyl pyrophosphate synthase (Rattus norvegicus) (UniProt P05369); experiment: Inhibition of rat FPPS expressed in Escherichia coli BL21 (DE3) using GPP and IPP as substrate at 10 uM incubated for 10 mins by microplate reader
T1 sequence (whole entry): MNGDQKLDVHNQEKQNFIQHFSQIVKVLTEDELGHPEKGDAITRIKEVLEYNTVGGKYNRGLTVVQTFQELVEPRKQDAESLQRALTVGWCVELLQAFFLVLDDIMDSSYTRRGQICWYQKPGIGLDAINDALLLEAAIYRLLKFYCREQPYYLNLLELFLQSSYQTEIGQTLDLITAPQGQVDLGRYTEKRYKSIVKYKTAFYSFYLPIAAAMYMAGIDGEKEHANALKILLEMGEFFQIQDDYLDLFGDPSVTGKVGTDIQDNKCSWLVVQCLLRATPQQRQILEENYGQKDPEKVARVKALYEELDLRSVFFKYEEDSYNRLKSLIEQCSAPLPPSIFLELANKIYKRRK

[2] = target: T2, Farnesyl pyrophosphate synthase (Rattus norvegicus, UniProt P05369); experiment: Binding affinity to rat FPPS expressed in Escherichia coli BL21 (DE3) by isothermal titration calorimetry
T2 sequence (P05369 whole entry): T1 sequence (whole entry)

Structure (SMILES)	inhibition [1] [%]	Kd [2] [µM]
CNS(=O)(=O)c1cn(CC(=O)Nc2cc(C)cc(C)c2)cc1S(=O)(=O)NC	23.4	442
CCC(C)c1ccc(O[C@@H]2O[C@H](CO)[C@@H](O)[C@H](O)[C@H]2NC(C)=O)cc1 (stereo not given in full)	25.3	499

Stronger by Kd [2], values ahead:

inhibition [1] [%]	Kd [2] [µM]	Structure (SMILES)
11.5	106	O=c1oc2cc(O[C@@H]3O[C@H](CO)[C@@H](O)[C@H](O)[C@H]3O)ccc2c2ccccc12
17.3	53.8	Cc1c(O[C@@H]2O[C@H](CO)[C@@H](O)[C@H](O)[C@H]2O)ccc2c3c(c(=O)oc12)CCCCC3
29.3	328	O=Cc1ccc(O[C@@H]2O[C@H](CO)[C@@H](O)[C@H](O)[C@H]2O)cc1
